US10047050B2, “3,4-di-substituted pyridine compound, methods of using and compositions comprising the same” (ARDEA BIOSCIENCES, INC., priority 2011, dated 2018)
Where “and” joins values, the source holds several entries; their conditions need not be identical. Identical values can stand only once.

System: serum uric acid
Assay: Single-dose Phase I clinical trial, serum uric acid (sUA) 0-72 hours post-dose
Format: in vivo, human
Conditions: for % sUA change (from baseline) / % sUA reduction (from baseline): individual subjects 3-8; for % sUA change (from baseline), Mean (3-8) / Absolute sUA concentration, Mean (3-8) / % sUA reduction (from baseline), Mean (3-8): mean of subjects 3-8
Protocol: A Phase 1, Randomized, Double-Blind, Placebo-Controlled Study to Evaluate Safety, Tolerability, Pharmacokinetics and Preliminary Food Effect of Single Doses of a URAT1 Inhibitor, in Healthy Adult Male Volunteers.
To assess safety, tolerability, pharmacokinetics and uricosuric effects after oral administration as single doses of a tablet formulation and the effect of food on bioavailability.
Subjects receive a single, oral dose of active or placebo, at the following doses:
Group 4: 20 mg (fasted) [sentinel dosing];
48 subjects in 6 dose groups, 8 subjects/group, are randomized 3:1 to receive active (6/group) or placebo (2/group). All study procedures are the same regardless of whether subject receives active or placebo. The total duration of subject participation, including screening period, is ˜2-4 weeks, and the total volume of blood collected from each subject during the entire study <500 mL, (less than typically collected during a volunteer blood donation).
5 mg and 20 mg, active and placebo, tablets packaged in 35 count HDPE bottles, stored at controlled room temperature (15-30° C.). Placebo tablets are designed to match the active tablets—identical size, form, taste, and color, and containing the same excipients. 2 mg was dosed as an oral solution.
Subjects dosed on the morning of Day 1 with ˜240 mL of room temp water.
Fasted: subjects are dosed after overnight fast >10 hours and remain fasted until >4 hours post-dose.
Fed: subjects fast overnight for >10 hours, then are dosed 30 mins after completing standard moderate fat breakfast (no high fructose corn syrup).
Serum samples are collected at:
PD samples are frozen (−20° C.) and stored; all samples from a given subject assayed in a single analytical run.

[1] = Group 1, 2 mg single oral dose, fasted, 0 h (baseline)
[2] = Group 1, 2 mg single oral dose, fasted, 6 h post-dose
[3] = Group 1, 2 mg single oral dose, fasted, 12 h post-dose
[4] = Group 1, 2 mg single oral dose, fasted, 24 h post-dose
[5] = Group 1, 2 mg single oral dose, fasted, 30 h post-dose
[6] = Group 1, 2 mg single oral dose, fasted, 36 h post-dose
[7] = Group 1, 2 mg single oral dose, fasted, 48 h post-dose
[8] = Group 1, 2 mg single oral dose, fasted, 54 h post-dose
[9] = Group 1, 2 mg single oral dose, fasted, 60 h post-dose
[10] = Group 1, 2 mg single oral dose, fasted, 72 h post-dose
[11] = Group 2, 5 mg single oral dose, fasted, 0 h (baseline)
[12] = Group 2, 5 mg single oral dose, fasted, 6 h post-dose
[13] = Group 2, 5 mg single oral dose, fasted, 12 h post-dose
[14] = Group 2, 5 mg single oral dose, fasted, 24 h post-dose
[15] = Group 2, 5 mg single oral dose, fasted, 30 h post-dose
[16] = Group 2, 5 mg single oral dose, fasted, 36 h post-dose
[17] = Group 2, 5 mg single oral dose, fasted, 48 h post-dose
[18] = Group 2, 5 mg single oral dose, fasted, 54 h post-dose
[19] = Group 2, 5 mg single oral dose, fasted, 60 h post-dose
[20] = Group 2, 5 mg single oral dose, fasted, 72 h post-dose
[21] = Group 3, 5 mg single oral dose, fed, 0 h (baseline)
[22] = Group 3, 5 mg single oral dose, fed, 6 h post-dose
[23] = Group 3, 5 mg single oral dose, fed, 12 h post-dose
[24] = Group 3, 5 mg single oral dose, fed, 24 h post-dose
[25] = Group 3, 5 mg single oral dose, fed, 30 h post-dose
[26] = Group 3, 5 mg single oral dose, fed, 36 h post-dose
[27] = Group 3, 5 mg single oral dose, fed, 48 h post-dose

CC(C)(Sc1ccncc1-c1ccc(C#N)c2ccccc12)C(=O)O [2-((3-(4-cyanonaphthalen-1-yl)pyridin-4-yl)thio)-2-methylpropanoic acid]
% sUA change (from baseline) [1]: 0% | % sUA change (from baseline), Mean (3-8) [1]: 0% | Absolute sUA concentration, Mean (3-8) [1]: 6.5 mg/dL | % sUA change (from baseline) [2]: −30.4% and −47.5% and −35.5% and −37.8% and −38.2% and −33.3% | % sUA change (from baseline), Mean (3-8) [2]: −10.2% | Absolute sUA concentration, Mean (3-8) [2]: 5.8 mg/dL | % sUA change (from baseline) [3]: −44.6% (2×) and −52.5% and −48.4% and −43.4% and −42.3% | % sUA change (from baseline), Mean (3-8) [3]: −15.6% | Absolute sUA concentration, Mean (3-8) [3]: 5.5 mg/dL | % sUA change (from baseline) [4]: −41.1% and −44.1% and −43.5% and −40.5% and −43.4% and −46.2% | % sUA change (from baseline), Mean (3-8) [4]: −8.1% | Absolute sUA concentration, Mean (3-8) [4]: 6.0 mg/dL | % sUA change (from baseline) [5]: −46.4% and −52.5% and −43.5% and −44.6% and −44.7% and −52.6% | % sUA change (from baseline), Mean (3-8) [5]: −13.5% | Absolute sUA concentration, Mean (3-8) [5]: 5.6 mg/dL | % sUA change (from baseline) [6]: −48.2% and −52.5% and −45.2% and −45.9% and −46.1% and −52.6% | % sUA change (from baseline), Mean (3-8) [6]: −18.8% | Absolute sUA concentration, Mean (3-8) [6]: 5.3 mg/dL | % sUA change (from baseline) [7]: −32.1% and −42.4% and −38.7% and −36.5% and −35.5% and −48.7% | % sUA change (from baseline), Mean (3-8) [7]: −13.3% | Absolute sUA concentration, Mean (3-8) [7]: 5.6 mg/dL | % sUA change (from baseline) [8]: −33.9% and −45.8% and −37.1% and −27% and −32.9% and −48.7% | % sUA change (from baseline), Mean (3-8) [8]: −19.3% | Absolute sUA concentration, Mean (3-8) [8]: 5.3 mg/dL | % sUA change (from baseline) [9]: −35.7% and −45.8% and −35.5% and −29.7% and −32.9% and −46.2% | % sUA change (from baseline), Mean (3-8) [9]: −21.3% | Absolute sUA concentration, Mean (3-8) [9]: 5.1 mg/dL | % sUA change (from baseline) [10]: −23.2% and −30.5% and −16.1% and −14.9% and −15.8% and −28.2% | % sUA change (from baseline), Mean (3-8) [10]: −15.5% | Absolute sUA concentration, Mean (3-8) [10]: 5.5 mg/dL | % sUA reduction (from baseline) [11]: 0% | % sUA reduction (from baseline), Mean (3-8) [11]: 0% | Absolute sUA concentration, Mean (3-8) [11]: 6.5 mg/dL | % sUA reduction (from baseline) [12]: −24.3% and −13.9% and −14.3% and −13.1% and −27.9% and −22.0% | % sUA reduction (from baseline), Mean (3-8) [12]: −19.3% | Absolute sUA concentration, Mean (3-8) [12]: 5.3 mg/dL | % sUA reduction (from baseline) [13]: −36.5% and −16.7% and −19.0% and −13.1% and −37.7% and −32.2% | % sUA reduction (from baseline), Mean (3-8) [13]: −25.9% | Absolute sUA concentration, Mean (3-8) [13]: 4.8 mg/dL | % sUA reduction (from baseline) [14]: −25.7% and −11.1% (2×) and 0.0% and −26.2% and −16.9% | % sUA reduction (from baseline), Mean (3-8) [14]: −15.2% | Absolute sUA concentration, Mean (3-8) [14]: 5.5 mg/dL | % sUA reduction (from baseline) [15]: −29.7% and −16.7% and −17.5% and −8.2% and −36.1% and −28.8% | % sUA reduction (from baseline), Mean (3-8) [15]: −22.8% | Absolute sUA concentration, Mean (3-8) [15]: 5.0 mg/dL | % sUA reduction (from baseline) [16]: −32.4% and −23.6% and −14.3% and −14.8% and −41.0% and −32.2% | % sUA reduction (from baseline), Mean (3-8) [16]: −26.4% | Absolute sUA concentration, Mean (3-8) [16]: 4.8 mg/dL | % sUA reduction (from baseline) [17]: −27.0% and −11.1% and −9.5% and −11.5% and −31.1% and −20.3% | % sUA reduction (from baseline), Mean (3-8) [17]: −18.4% | Absolute sUA concentration, Mean (3-8) [17]: 5.3 mg/dL | % sUA reduction (from baseline) [18]: −31.1% and −18.1% and −15.9% and −16.4% and −32.8% and −28.8% | % sUA reduction (from baseline), Mean (3-8) [18]: −23.9% | Absolute sUA concentration, Mean (3-8) [18]: 5.0 mg/dL | % sUA reduction (from baseline) [19]: −28.4% and −22.2% and −20.6% and −21.3% and −32.8% and −28.8% | % sUA reduction (from baseline), Mean (3-8) [19]: −25.7% | Absolute sUA concentration, Mean (3-8) [19]: 4.8 mg/dL | % sUA reduction (from baseline) [20]: −21.6% and −15.3% and −12.7% and −13.1% and −26.2% and −23.7% | % sUA reduction (from baseline), Mean (3-8) [20]: −18.8% | Absolute sUA concentration, Mean (3-8) [20]: 5.3 mg/dL | % sUA reduction (from baseline) [21]: 0% | % sUA reduction (from baseline), Mean (3-8) [21]: 0% | Absolute sUA concentration, Mean (3-8) [21]: 6.0 mg/dL | % sUA reduction (from baseline) [22]: −36.2% and −31.8% and −25.0% and −22.8% and −30.0% | % sUA reduction (from baseline), Mean (3-8) [22]: −29.2% | Absolute sUA concentration, Mean (3-8) [22]: 4.1 mg/dL | % sUA reduction (from baseline) [23]: −40.6% and −37.9% and −29.2% and −25.0% and −22.8% | % sUA reduction (from baseline), Mean (3-8) [23]: −32.2% | Absolute sUA concentration, Mean (3-8) [23]: 4.0 mg/dL | % sUA reduction (from baseline), Mean (3-8) [24]: −17.2% | Absolute sUA concentration, Mean (3-8) [24]: 4.9 mg/dL | % sUA reduction (from baseline), Mean (3-8) [25]: −25.6% | Absolute sUA concentration, Mean (3-8) [25]: 4.4 mg/dL | % sUA reduction (from baseline), Mean (3-8) [26]: −29.1% | Absolute sUA concentration, Mean (3-8) [26]: 4.2 mg/dL | % sUA reduction (from baseline) [27]: −31.9% and −30.3% and −23.1% and −23.3% and −14.0% and −27.5% | % sUA reduction (from baseline), Mean (3-8) [27]: −25.0%
